This is an account of results in ChEMBL document CHEMBL1131391, “Identification and characterization of m4 selective muscarinic antagonists” (Bioorg Med Chem Lett, 1998).

In assay [1] the target is T1, Muscarinic acetylcholine receptor M3 (Homo sapiens, UniProt P20309). The experiment in a line: Evaluated for its binding affinity at human muscarinic receptor m3 by the displacement of [3H]NMS binding using membranes from transfected chinese hamster ovarian cell. The assay is classed as cell-based. (In general: In a radioligand displacement assay an active substance lowers the binding of a labelled ligand.)
Target sequence in this assay (P20309 whole entry): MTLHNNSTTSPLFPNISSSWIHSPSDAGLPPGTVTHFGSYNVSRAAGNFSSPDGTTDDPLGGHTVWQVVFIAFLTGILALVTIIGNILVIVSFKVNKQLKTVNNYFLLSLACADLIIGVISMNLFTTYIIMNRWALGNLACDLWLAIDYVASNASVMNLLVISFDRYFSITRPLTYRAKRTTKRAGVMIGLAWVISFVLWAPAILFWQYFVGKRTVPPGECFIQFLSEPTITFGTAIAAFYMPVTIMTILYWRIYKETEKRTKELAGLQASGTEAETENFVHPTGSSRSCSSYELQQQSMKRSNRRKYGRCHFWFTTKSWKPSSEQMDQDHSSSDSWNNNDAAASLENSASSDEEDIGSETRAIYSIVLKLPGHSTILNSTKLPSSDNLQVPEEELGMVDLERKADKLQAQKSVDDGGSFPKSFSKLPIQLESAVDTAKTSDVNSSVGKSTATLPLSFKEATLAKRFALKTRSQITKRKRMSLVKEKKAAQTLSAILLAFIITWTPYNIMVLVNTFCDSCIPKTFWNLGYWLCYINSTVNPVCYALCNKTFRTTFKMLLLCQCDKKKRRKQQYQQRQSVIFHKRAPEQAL

Assay [2] concerns the target T2, Muscarinic acetylcholine receptor M2 (Homo sapiens, UniProt P08172).
T2 sequence (P08172 whole entry): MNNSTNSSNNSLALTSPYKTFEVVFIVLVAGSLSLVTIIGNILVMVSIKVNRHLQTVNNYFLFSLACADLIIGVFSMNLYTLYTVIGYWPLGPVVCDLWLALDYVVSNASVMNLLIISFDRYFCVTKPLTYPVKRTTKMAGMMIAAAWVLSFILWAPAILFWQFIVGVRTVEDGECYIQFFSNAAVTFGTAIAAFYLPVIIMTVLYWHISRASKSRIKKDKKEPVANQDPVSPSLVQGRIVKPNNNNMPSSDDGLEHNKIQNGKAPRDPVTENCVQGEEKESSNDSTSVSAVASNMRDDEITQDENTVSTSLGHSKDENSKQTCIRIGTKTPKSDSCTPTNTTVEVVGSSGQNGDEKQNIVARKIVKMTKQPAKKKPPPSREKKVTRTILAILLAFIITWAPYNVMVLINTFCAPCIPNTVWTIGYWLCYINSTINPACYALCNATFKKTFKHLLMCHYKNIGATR
The experiment in a line: Evaluated for its binding affinity at human muscarinic receptor m2 by displacement of [3H]NMS binding using membranes from transfected chinese hamster ovarian cell.

Assay [3] concerns the target T3, Muscarinic acetylcholine receptor M1 (Homo sapiens, UniProt P11229).
T3 sequence (P11229 whole entry): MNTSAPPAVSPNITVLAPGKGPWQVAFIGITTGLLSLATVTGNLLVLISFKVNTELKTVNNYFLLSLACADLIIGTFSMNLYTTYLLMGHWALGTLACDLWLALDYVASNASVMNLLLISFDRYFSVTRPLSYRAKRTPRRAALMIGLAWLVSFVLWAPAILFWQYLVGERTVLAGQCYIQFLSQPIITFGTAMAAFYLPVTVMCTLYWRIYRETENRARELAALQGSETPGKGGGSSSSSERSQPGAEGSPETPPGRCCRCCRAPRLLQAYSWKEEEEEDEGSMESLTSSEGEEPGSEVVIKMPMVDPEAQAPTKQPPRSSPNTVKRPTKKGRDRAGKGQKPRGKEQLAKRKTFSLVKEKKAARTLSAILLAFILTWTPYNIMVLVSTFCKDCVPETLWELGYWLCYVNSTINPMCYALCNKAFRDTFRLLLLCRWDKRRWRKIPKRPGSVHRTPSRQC
Nature of the assay: Evaluated for its binding affinity at human muscarinic receptor m1 by displacement of [3H]NMS binding using membranes in transfected chinese hamster ovarian cell. Type of assay: cell-based.

Assay [4] has as its target T4, Muscarinic acetylcholine receptor M5 (Homo sapiens, UniProt P08912).
T4 sequence (P08912 whole entry): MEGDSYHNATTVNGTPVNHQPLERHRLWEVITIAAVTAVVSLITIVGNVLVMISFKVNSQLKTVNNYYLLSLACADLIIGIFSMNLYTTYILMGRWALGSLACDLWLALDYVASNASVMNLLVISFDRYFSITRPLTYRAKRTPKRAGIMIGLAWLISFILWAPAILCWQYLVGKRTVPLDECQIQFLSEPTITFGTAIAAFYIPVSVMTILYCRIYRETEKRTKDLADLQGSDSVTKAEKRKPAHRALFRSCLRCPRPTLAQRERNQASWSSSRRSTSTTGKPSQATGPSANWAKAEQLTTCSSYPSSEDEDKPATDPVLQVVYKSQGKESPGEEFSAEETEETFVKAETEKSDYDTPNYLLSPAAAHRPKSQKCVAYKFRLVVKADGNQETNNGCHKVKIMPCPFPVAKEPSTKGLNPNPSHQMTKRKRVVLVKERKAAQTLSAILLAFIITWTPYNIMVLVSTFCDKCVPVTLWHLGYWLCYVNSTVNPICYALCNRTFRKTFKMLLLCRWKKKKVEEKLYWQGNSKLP
The experiment in a line: Evaluated for its binding affinity at human muscarinic receptor m5 by the displacement of [3H]NMS binding using membranes from transfected chinese hamster ovarian cell.

Assay [5] deals with T5, Muscarinic acetylcholine receptor M4 (Homo sapiens, UniProt P08173).
T5 sequence (P08173 whole entry): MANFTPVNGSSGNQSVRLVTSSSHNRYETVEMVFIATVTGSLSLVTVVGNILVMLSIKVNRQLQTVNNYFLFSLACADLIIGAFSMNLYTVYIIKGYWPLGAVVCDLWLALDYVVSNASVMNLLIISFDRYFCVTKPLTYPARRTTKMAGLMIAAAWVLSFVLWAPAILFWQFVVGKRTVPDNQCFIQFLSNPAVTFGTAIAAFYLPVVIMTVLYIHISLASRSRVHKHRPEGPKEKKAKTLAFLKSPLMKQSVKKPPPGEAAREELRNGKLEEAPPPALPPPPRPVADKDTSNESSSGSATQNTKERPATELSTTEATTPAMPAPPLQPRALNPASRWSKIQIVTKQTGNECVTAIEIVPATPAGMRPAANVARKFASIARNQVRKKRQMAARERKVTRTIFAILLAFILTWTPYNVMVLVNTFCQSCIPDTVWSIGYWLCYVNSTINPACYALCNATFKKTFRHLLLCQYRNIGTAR
The experiment in a line: Evaluated for its binding affinity at human muscarinic receptor m4 by the displacement of [3H]NMS binding using membranes from transfected chinese hamster ovarian cell.

Assay [6] addresses T6, Muscarinic acetylcholine receptor M2 (Homo sapiens) (UniProt P08172).
T6 sequence (whole entry): T2 sequence (P08172 whole entry)
Nature of the assay: Compound was evaluated for its binding affinity at human muscarinic receptor m2 by displacement of [3H]NMS radioligand using membranes from transfected chinese hamster ovarian cell at 100 nM concentration.

Assay [7] has as its target T6, Muscarinic acetylcholine receptor M2 (Homo sapiens). The experiment in a line: Compound was evaluated for its binding affinity at human muscarinic receptor m2 by the displacement of [3H]NMS radioligand using membranes from transfected chinese hamster ovarian cell at 1000 nM concentration.
For assay [8], the target named is T7, Muscarinic acetylcholine receptor M5 (Homo sapiens) (UniProt P08912).
T7 sequence (whole entry): T4 sequence (P08912 whole entry)
The experiment in a line: Compound was evaluated for its binding affinity at human muscarinic receptor Hm5 by the displacement of [3H]NMS radioligand using membranes from transfected chinese hamster ovarian cell at 100 nM concentration.

The target of assay [9] is T7, Muscarinic acetylcholine receptor M5 (Homo sapiens). The experiment in a line: Compound was evaluated for its binding affinity at human muscarinic receptor Hm5 by the displacement of [3H]-NMS radioligand using membranes from transfected chinese hamster ovarian cell at 1000 nM concentration.
Assay [10] concerns the target T1, Muscarinic acetylcholine receptor M3. Nature of the assay: Compound was evaluated for its binding affinity at human muscarinic receptor Hm3 by the displacement of [3H]NMS radioligand using membranes from transfected chinese hamster ovarian cell at 1000 nM concentration.
Target sequence in this assay (P20309 whole entry, looked up): as the sequence (P20309 whole entry) above
For assay [11] the target is unchanged. The experiment in a line: Compound was evaluated for its binding affinity at human muscarinic receptor Hm3 by the displacement of [3H]NMS radioligand using membranes from transfected chinese hamster ovarian cell at 100 nM concentration.
Target sequence in this assay (P20309 whole entry, looked up): as the sequence (P20309 whole entry) above
In assay [12] the target is T8, Muscarinic acetylcholine receptor M4 (Homo sapiens) (UniProt P08173).
T8 sequence (whole entry): T5 sequence (P08173 whole entry)
The experiment in a line: Compound was evaluated for its binding affinity at human muscarinic receptor Hm4 by the displacement of [3H]NMS radioligand using membranes from transfected chinese hamster ovarian cell at 100 nM concentration.

Assay [13] has as its target T8, Muscarinic acetylcholine receptor M4 (Homo sapiens). The experiment in a line: Compound was evaluated for its binding affinity at human muscarinic receptor Hm4 by the displacement of [3H]-NMS radioligand using membranes from transfected chinese hamster ovarian cell at 1000 nM concentration.

pIC50: −log10 of the molar value.

The term pIC50 denotes −log10 of the IC50, conventionally taken in molar units. Higher therefore signals a small IC50. Take `CCOC(=O)c1c(C)[nH]c2ccc3c(c12)CN1CCc2cc(OCC)ccc2C1O3` (stereo unspecified): the pIC50 in [1] was 5.58; in assay [2] it was 5.59; in [3], 5.37; in assay [4], 5.06; in assay [5] it was 5.79.
In the case of `CCOC(=O)c1c[nH]c2ccc3c(c12)CN1CCc2cc(OC)c(OC)cc2C1O3` (stereo unspecified), the pIC50 in assay [1] was 4.99; in [2] it was 5.11; in assay [3] it was 5.09; in [4], 4.32; in [5] it was 5.82.
In the same order, the values of `CCOC(=O)c1c[nH]c2ccc3c(c12)CN1CCc2cc(OC)ccc2C1O3` (stereo unspecified) are 5.43, 5.34, 5.25, 5.22 and 6.48.
Usually inhibition stands for how much of the control response was suppressed. As to `CCOC(=O)c1c(C)[nH]c2ccc3c(c12)C[N+]1(C)CCc2cc(OC)ccc2C1O3` (stereo unspecified), the inhibition in assay [6] came out at 14.7%; in assay [7] it was 29.9%; in [8] it was 0.9%; in [9], 1.6%; in assay [10], 0%; in assay [11] it was 0%. The inhibition worked out at 0% in assay [12] and 19.9% in [13].
For `CCOC(=O)c1c(C)[nH]c2ccc3c(c12)CN1CCc2cc(OC)ccc2C1O3` (stereo unspecified), the negative-log IC50 (pIC50) in assay [1] was 6.02; in assay [2] it was 5.46; in assay [3], 5.18; in assay [4] it was 5.13; in assay [5], 7.04.
The corresponding values for `CCOC(=O)c1c(C)[nH]c2ccc3c(c12)CN1CCc2cc(OC)c(OC)cc2C1O3` (stereo unspecified) are 5.79, 5.03, 4.89, 4.57 and 6.52.
As to `CCCOC(=O)c1c(C)[nH]c2ccc3c(c12)CN1CCc2cc(OC)ccc2C1O3` (stereo unspecified), the negative logarithm of the IC50 (pIC50) in assay [1] is 5.83; in assay [2] it was 5.72; in assay [3], 5.71; in assay [4], 5.42; in assay [5], 6.44.
The corresponding values for `CCOC(=O)c1c(C)[nH]c2ccc3c(c12)CN1CCc2cc(Oc4ccccc4)ccc2C1O3` (stereo unspecified) are 5.51, 5.78, 5.71, 5.69 and 5.58.
The corresponding values for `CCOC(=O)c1c(C)[nH]c2ccc3c(c12)CN1CCc2ccc(OC)cc2C1O3` (stereo unspecified) are 4.97, 5.52, 5.04, 5.09 and 5.22.
For the compound `COc1cc2c(cc1OC)C1Oc3ccc4[nH]c(C)cc4c3CN1CC2` (stereo unspecified), the pIC50 in assay [1] is 4.49; in assay [2], 4.83; in [3], 4.49; in assay [4] it was 4.36; in assay [5] it was 5.32.
On to `COC(=O)c1c(C)[nH]c2ccc3c(c12)CN1CCc2ccccc2C1O3` (stereo unspecified), for which the pIC50 was 4.90 in [1]; 5.33 in assay [2]; 5.15 in assay [3]; 5.24 in [4]; 5.00 in assay [5].
Turning to `COc1ccc2c(c1)CCN1Cc3c(ccc4[nH]c(C)c(C(=O)OC(C)C)c34)OC21` (stereo unspecified), the pIC50 in assay [1] was 5.55; in [2] it was 5.58; in [3], 5.39; in assay [4], 5.32; in assay [5], 5.69.
On to `CCOC(=O)c1c(C)[nH]c2ccc3c(c12)CN1CCc2cccc(C)c2C1O3` (stereo unspecified), for which the pIC50 in [1] was 5.55; in assay [2] it was more than 6.00; in [3] it was 5.21; in [4], 5.76; in assay [5], 5.83.
Take `CC1OC(=O)[C@H]2C[C@H]3CCCC[C@@H]3[C@@H](/C=C/C3CCC[C@H](C)N3C)[C@@H]12` (single isomer, unassigned) [HIMBACINE]: the pIC50 is 7.76 in assay [2], 6.26 in assay [3] and 5.99 in [4].
On to `COc1ccc2c(c1)CCN1Cc3c(ccc4[nH]c(C)cc34)OC21` (stereo unspecified), for which the pIC50 in assay [1] is 4.82; in [2], 5.94; in assay [3], 4.97; in [4] it was 4.75; in assay [5], 5.01.
Consider `CCOC(=O)c1c(C)[nH]c2ccc3c(c12)CN1CCc2ccccc2C1O3` (stereo unspecified), for which the pIC50 was 5.26 in assay [1]; 5.57 in assay [2]; 5.30 in assay [3]; 5.38 in [4]; 5.43 in assay [5].
On to `CCOC(=O)c1c(C)[nH]c2ccc3c(c12)CN1CCc2cc(C)ccc2C1O3` (stereo unspecified), for which the pIC50 in assay [1] was 5.57; in [2], 5.02; in assay [3], 5.48; in assay [4], 5.41; in assay [5], 6.33.
Turning to `COC(=O)c1c(C)[nH]c2ccc3c(c12)CN1CCc2cc(OC)ccc2C1O3` (stereo unspecified), the negative logarithm of the IC50 (pIC50) in [1] is 5.47; in assay [2] it was 4.88; in assay [3] it was 5.42; in assay [4], 5.39; in assay [5], 6.30.
